Reference: PubChem BioAssay (NCI)
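Exposure lasted 48 hours, with cells grown in 96-well plates and compounds tested at five concentrations. The concentration for full growth arrest is given as TGI.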 Where a SMILES comes first, the peptide text is derived from it. [ ]: non-standard residue; d: D form. The star is where a group is joined. X28 = COC1=CC(=O)N(C(=O)[C@@H](O*)C(C)C)[C@H]1Cc1ccccc1; Bn2Val = CC(C)[C@@H](C(=O)*)N(Cc1ccccc1)Cc1ccccc1; NMeV = CN[C@H](C(=O)O)C(C)C; dNMeA = CN[C@H](C)C(=O)O

Columns and labels:
Assay in all cases: DTP human tumour cell line panel, 48 h
MDA-MB-231 breast = test system: MDA-MB-231 breast
NCI-H226 lung = test system: NCI-H226 lung
HCT-116 colon = test system: HCT-116 colon
LOX IMVI melanoma = test system: LOX IMVI melanoma
HS 578T breast = test system: HS 578T breast
HCT-15 colon = test system: HCT-15 colon
MOLT-4 leukemia = test system: MOLT-4 leukemia
MCF7 breast = test system: MCF7 breast
NCI-H23 lung = test system: NCI-H23 lung
HT29 colon = test system: HT29 colon

| SMILES | TGI (MDA-MB-231 breast) | TGI (NCI-H226 lung) | TGI (HCT-116 colon) | TGI (LOX IMVI melanoma) | TGI (HS 578T breast) | TGI (HCT-15 colon) | TGI (MOLT-4 leukemia) | TGI (MCF7 breast) | TGI (NCI-H23 lung) | TGI (HT29 colon) |
| --- | --- | --- | --- | --- | --- | --- | --- | --- | --- | --- |
| C/C(=N/NC(=S)N(C)C)c1ccccc1O | > 100 µM | > 66.3 µM | 34.8 µM | > 75.1 µM | > 100 µM | > 100 µM | 97.7 µM | > 40.4 µM | > 100 µM | > 100 µM |
| COc1ccc(C(=O)c2c(-c3ccccc3NC(=O)C(F)(F)F)[nH]c3ccccc23)cc1 | 21.4 µM | 37.9 µM | 25.5 µM | 16.1 µM | 46.9 µM | 19.9 µM | 10.6 µM | 17.2 µM | 25.7 µM | 16.5 µM |
| COc1cc(NS(C)(=O)=O)ccc1NCc1cnc2ccc3[nH]cccc3c12 | 51 µM | 35.6 µM | > 70 µM | 63.4 µM | 47.5 µM | 58.4 µM | 22.1 µM | 59 µM | 55 µM | 73.9 µM |
| O=S(c1ccccc1)C1CC2CC3(CCC21O)OCCO3 (stereo unspecified) | > 100 µM | > 100 µM | – | > 100 µM | > 100 µM | > 100 µM | > 100 µM | > 100 µM | > 100 µM | > 100 µM |
| CCOC(=O)C1(C#N)C2(C#N)C(N)=NC(ON=C(C)C)(ON=C(C)C)C12C#N (stereo unspecified) | > 100 µM | > 100 µM | > 100 µM | > 100 µM | > 100 µM | > 100 µM | > 100 µM | > 100 µM | > 100 µM | > 100 µM |
| CCCCCCCCCC(O)CC(=O)c1c(O)cccc1O (stereo unspecified) | 46.5 µM | 34.9 µM | 56.7 µM | 46 µM | 40.8 µM | 39.4 µM | 41.6 µM | 50.3 µM | 43.7 µM | 43 µM |
| Cc1nc2ccccc2c(=O)n1NC(=O)c1ccccc1[N+](=O)[O-] | > 100 µM | > 100 µM | > 100 µM | > 100 µM | > 100 µM | > 100 µM | > 100 µM | > 100 µM | > 100 µM | > 100 µM |
| Nc1nc(Nc2ccc(Cl)cc2)sc1C(=O)c1c[nH]c2ccccc12 | 35 µM | 46.1 µM | 23.1 µM | 43.8 µM | 71.3 µM | 15.2 µM | – | 31 µM | 27.8 µM | 20 µM |
| CC(C(=O)NCCNC(=O)CCC(=O)N(C)O)C(=O)NCCNC(=O)CCC(=O)N(C)O | > 100 µM | > 100 µM | – | > 100 µM | > 100 µM | > 100 µM | > 100 µM | > 100 µM | > 100 µM | > 100 µM |
| CC(=O)OC12CC(C(F)(F)F)(C(F)(F)F)OC1(OC(C)=O)CC(C(F)(F)F)(C(F)(F)F)O2 (stereo unspecified) | 53.2 µM | > 100 µM | 29.7 µM | 34.9 µM | > 100 µM | > 100 µM | 67.6 µM | 3.73 µM | 8.71 µM | > 100 µM |
| Nc1nc2c(c(-c3ccccc3Cl)n1)COC/C2=C\c1ccccc1Cl | 34.8 µM | 39.2 µM | 30.7 µM | 36.9 µM | 51 µM | 39.9 µM | 34.6 µM | 27.7 µM | 34.8 µM | – |
| CSc1c2c(C)n[nH]c2nn1-c1ccccc1 | > 100 µM | > 100 µM | > 100 µM | > 100 µM | > 100 µM | > 100 µM | > 100 µM | > 100 µM | > 100 µM | > 100 µM |
| c1ccc(C(c2cccc3c2ccc2ccccc23)C(c2ccccc2)c2cccc3c2ccc2ccccc23)cc1 (stereo unspecified) | > 100 µM | > 100 µM | > 100 µM | > 100 µM | > 100 µM | > 100 µM | > 100 µM | > 100 µM | > 100 µM | > 100 µM |
| Nc1ncnc2c1ncn2C1OC(CO)C(O)C1NS(=O)(=O)c1ccccc1 (stereo unspecified) | > 100 µM | > 100 µM | > 100 µM | > 100 µM | > 100 µM | > 100 µM | > 100 µM | > 100 µM | > 100 µM | > 100 µM |
| CC(C)(C)c1cc(C(=O)C2Cc3ccccc3C(=O)O2)cc(C(C)(C)C)c1O (stereo unspecified) | 31.7 µM | 35.5 µM | 21.9 µM | 26.5 µM | > 100 µM | 37 µM | > 100 µM | 38.6 µM | 35.8 µM | 35.5 µM |
| CC(=O)NNc1nc(C)c(C(/C=C/c2ccc([N+](=O)[O-])cc2)=N/NC(N)=O)s1 | > 100 µM | > 100 µM | > 100 µM | > 100 µM | > 100 µM | > 100 µM | > 100 µM | > 100 µM | > 100 µM | > 100 µM |

| SMILES | TGI (MDA-MB-231 breast) | TGI (NCI-H226 lung) | TGI (HCT-116 colon) | TGI (LOX IMVI melanoma) | TGI (HS 578T breast) | TGI (HCT-15 colon) | TGI (MOLT-4 leukemia) | TGI (MCF7 breast) | TGI (NCI-H23 lung) | TGI (HT29 colon) |
| --- | --- | --- | --- | --- | --- | --- | --- | --- | --- | --- |
| NC(=S)Nc1ccc2c(c1)oc1ccccc12 | > 100 µM | > 100 µM | > 100 µM | > 100 µM | > 100 µM | > 100 µM | > 100 µM | > 100 µM | > 100 µM | > 100 µM |
| C=CCOC(=O)c1c(C)n([O-])c2cc(Cl)c(Cl)cc2[n+]1=O | 55 µM | 38.9 µM | 39 µM | 32.9 µM | 65.9 µM | 31.7 µM | 54.4 µM | 60.8 µM | 30.3 µM | 36.8 µM |
| O=C(CNc1nccs1)Nn1cnc2ccc(S(=O)(=O)Nc3nccs3)cc2c1=O | > 100 µM | > 100 µM | > 100 µM | > 100 µM | > 100 µM | > 100 µM | > 100 µM | > 100 µM | > 100 µM | > 100 µM |
| C=CC(C)(C)C1(CC(OC)OC)C(=O)N(C)c2ccccc21 (stereo unspecified) | > 25 µM | > 25 µM | > 25 µM | > 25 µM | > 25 µM | > 25 µM | – | > 25 µM | > 25 µM | > 25 µM |
| CCCCC(=C=C(C)CO)C1CCCN1C(=O)OC(C)(C)C (stereo unspecified) | 34 µM | 33.9 µM | 29.5 µM | 30.4 µM | 30.4 µM | 39 µM | 33.8 µM | 43.5 µM | 46.8 µM | 34.3 µM |
| COC1=CC(=O)N(C(=O)[C@@H](OC(=O)[C@@H](C)N(C)C(=O)[C@@H]2CCCN2C(=O)[C@H](C(C)C)N(C)C(=O)[C@@H](NC(=O)[C@H](C(C)C)N(Cc2ccccc2)Cc2ccccc2)C(C)C)C(C)C)[C@H]1Cc1ccccc1 (Bn2Val-V[NMeV]P[dNMeA]-X28) | > 77.6 µM | > 100 µM | > 100 µM | > 100 µM | > 100 µM | > 100 µM | – | > 100 µM | – | > 100 µM |
| N/C(=N\S(=O)(=O)c1ccc(-c2ccccn2)s1)Nc1ccc(Cl)cc1 | 27.9 µM | 35.8 µM | 31 µM | 33.5 µM | 59.6 µM | 38 µM | 5.61 µM | 34.4 µM | 33.2 µM | 35.2 µM |
| CNC(=O)c1cc2nc3ccccc3c(=O)n2c2ccccc12 | > 10 µM | > 10 µM | > 10 µM | > 10 µM | > 10 µM | > 10 µM | > 10 µM | > 10 µM | > 10 µM | > 10 µM |
| CC(=O)NNC(=S)/N=C\c1c(O)c2ccccc2oc1=O | > 100 µM | > 100 µM | > 100 µM | > 100 µM | > 100 µM | > 100 µM | > 100 µM | > 100 µM | > 100 µM | > 100 µM |
| COc1ccc(OC)c(NC2=NCCO2)c1 | > 100 µM | > 100 µM | > 100 µM | > 100 µM | > 100 µM | > 100 µM | > 100 µM | > 100 µM | > 100 µM | > 100 µM |
| CC(C)NCC(O)c1ccc(O)c2ncccc12 (stereo unspecified) | > 100 µM | > 100 µM | 87.7 µM | > 100 µM | > 100 µM | > 100 µM | 46.9 µM | > 100 µM | 78.7 µM | > 100 µM |
| Cc1nc(N)sc1C(=O)Nc1ncn[nH]1 | > 100 µM | > 100 µM | > 100 µM | > 100 µM | > 100 µM | > 100 µM | > 100 µM | > 100 µM | > 100 µM | > 100 µM |
| N#CCCN(CCC#N)c1ccc(/C=C2\SC(=S)NC2=O)cc1 | > 100 µM | > 100 µM | > 100 µM | > 100 µM | > 100 µM | > 100 µM | > 100 µM | > 100 µM | > 100 µM | > 100 µM |
| O=C(/C=C/c1ccc2c(c1)OCO2)NCCc1ccco1 | > 100 µM | > 100 µM | > 100 µM | > 100 µM | > 100 µM | – | > 100 µM | > 100 µM | > 100 µM | > 100 µM |
| O=C(OCC1CCCN2CCCCC12)c1cccnc1 (stereo unspecified) | > 100 µM | > 100 µM | > 100 µM | > 100 µM | > 100 µM | > 100 µM | > 100 µM | > 100 µM | > 100 µM | > 100 µM |
| COC(=O)c1ccccc1NC(=S)NN(C)C | > 100 µM | > 100 µM | > 100 µM | > 100 µM | > 100 µM | > 100 µM | > 100 µM | > 100 µM | > 100 µM | – |
